Common to all, as to assay type: cell-based
One data set deals with P. aeruginosa ATCC 27853. The data set can be described thus: MIC by twofold serial dilution, P. aeruginosa. Particulars: Pseudomonas aeruginosa, ATCC27853; 24 h, 37 °C; read-out: MIC (Mean ± SE) P. aeruginosa ATCC 27853. The procedure:
(§1) Candida albicans ATCC 10231, Pseudomonas aeruginosa ATCC 27853, and Staphylococcus aureus ATCC 29213 strains were obtained from the American Type Culture Collection (ATCC; Rockville, MD, USA). The subculture and inoculum preparation were performed according to CLSI M27-A3 for C. albicans on yeast extract peptone dextrose (YPD) agar (HiMedia, Mumbai, Maharashtra, India) and RPMI-1640 medium (PanEco, Moscow, Russia) with MOPS (3-(N-morpholino) propanesulfonic acid, >99.5%; PanEco, Moscow, Russia), and M7-A11 for P. aeruginosa and S. aureus on Mueller-Hinton agar (MHA; HiMedia, Mumbai, Maharashtra, India) and Mueller-Hinton broth (MHB; HiMedia, Mumbai, Maharashtra, India). The stock cell concentrations of fungus and bacteria were 1 × 10^6 and 1 × 10^8 cells/mL, respectively. A working suspension of C. albicans (5.0 × 10^2 cells/mL) was prepared by two-step dilution of the broth concentration with the RPMI-1640 medium. Assay suspensions of P. aeruginosa and S. aureus (1.0 × 10^6 cells/mL) were prepared by diluting the concentration with Mueller-Hinton broth (HiMedia, Mumbai, Maharashtra, India). Amphotericin B (Sigma-Aldrich, Burlington, MA, USA) and gentamicin (Sigma-Aldrich, Burlington, MA, USA) were used as secondary pharmaceutical standards.
(§2) The minimum inhibitory concentration (MIC) was determined by the twofold serial dilution method, according to CLSI M27-A3 [33] and M07-A11 [34], in three independent experiments with four replicates each. Amphotericin B was used as a positive control for fungus; gentamicin was used as a positive control for bacteria. Stock solutions except gentamicin were prepared in DMSO at a concentration of 6400 μg/mL. Gentanicin was solubilized in sterile water at a concentration of 1280 μg/mL. Stock solutions of the tested substances were diluted to the final concentrations in the assay medium and 100 μL of each sample was added to the wells of 96-well plates, and then 100 μL of inoculum was added. Rows 11 and 12 were left for the negative control (medium with inoculum without the drug) and sterility control. The plates were incubated for 24 h at 35 °C in the case of C. albicans and at 37 °C in the case of P. aeruginosa and S. aureus. The tested concentration for gentamicin ranged from 0.0625 to 32 μg/mL; for other compounds, it ranged from 0.125 to 64 μg/mL. The MIC value was determined using spectrophotometer. The MIC was taken to be the lowest drug concentration that caused complete inhibition of microorganism growth compared to the control. The final MIC values were reported as the means with standard error (SE). Standard errors for µg/mL values less than 0.01 were excluded; standard errors for µM values less than 0.1 were excluded (Table 3).

Data set [1] relates to HIV-1 (subtype B) in MT-4 cells. The data set can be described thus: Antigen p24 assay in HIV-infected MT-4 cells. Particulars: Human immunodeficiency virus 1, MT4; HIV-1 899A strain (subtype B), third day after infection. Here is the method: The human MT-4 lymphoblastoid cells were cultured in RPMI 1640 medium supplemented with 10% fetal bovine serum (FBS) (HyClone, Logan, UT, USA), 2 mM L-glutamine, 50 U/mL penicillin, and 50 μg/mL streptomycin in a humidified atmosphere of 5% CO2 at 37 °C. The cells were re-seeded at a density of 3.0 × 10^5 cells/mL every three days. The HIV-1_899A strain (subtype B) was used from the collection of human immunodeficiency virus strains of the D.I. Ivanovsky Institute of Virology, N. F. Gamaleya National Research Center of Epidemiology and Microbiology, Ministry of Health, Moscow, Russia. The commercial drug Efavirenz (EFV), a non-nucleoside inhibitor of HIV reverse transcriptase, was used as a positive control. HIV-1 was added to the cells at 0.1 CCID50 (50% cell culture infectious dose). The cells, both infected and non-infected, were then incubated at 37 °C in a humidified atmosphere containing 5% CO2 for a 40 min period, after which the cells were washed twice in serum-free RPMI 1640 and plated into the wells of a 96-well plate. The tested compounds were then added to the cells at concentrations from 0.5 μM to 100 μM. The final ethanol concentration was 1% v/v. On the third day after infection, the culture fluid was collected for determining the amount of p24 antigen by enzyme immunoassay analysis using a commercial test system kit (Genscreen ULTRA HIV Ag-Ab, Bio-Rad, Hercules, CA, USA). Cell viability was measured by MTT assay.

Data set [2] is described as follows: Neutral red (NR) cytotoxicity assay. Particulars: human, Huh-7.5 cells. Here is the method:
Huh7.5 cells were grown in the DMEM/F12 (2:1) medium supplemented with 10% FBS (BioSera, Cholet, France), 2 mM L-glutamine, 100 U/mL penicillin, and 100 µg/mL streptomycin in the presence of 5% CO2 at 37 °C. Cells were re-seeded every three days at a ratio of 1:3 or 1:5.
The 40 µg/mL neutral red working solution was prepared, incubated overnight at the same temperature as the cells, and then centrifuged for 10 min at 600× g to remove any precipitated dye crystals. After the incubation with compounds tested at 37 °C in 5% CO2 for 48 h, cells were washed with PBS and then 100 µL of neutral red medium was added to each well of the plate. The plate was incubated for 2 h at the appropriate culture conditions, then the neutral red medium was removed and the cells were washed with PBS. After that 150 µL neutral red destain solution per well was added (50% ethanol, 49% deionized water, 1% glacial acetic acid (Sigma-Aldrich, Burlington, MA, USA). After the neutral red was extracted from the cells and formed a homogeneous solution, the result of the analysis was evaluated using a Tecan Spark multimode microplate reader via absorbance at 540 nm.

The next data set concerns S. aureus ATCC 29213. The data set can be described thus: MIC by twofold serial dilution, S. aureus. Particulars: Staphylococcus aureus, ATCC29213, 24 h, 37 °C, read-out: MIC (Mean ± SE) S. aureus ATCC 29213. The procedure:
as §1, §2

In brackets after ≈: the same amount, converted by molar mass. Several values for one entry are separate records, joined by “and”; a condition that tells them apart may be missing. Equal values may be shown once.

For the molecule `Oc1c(N/N=C/c2ccccc2)ccc2cccnc12` [Compound I, 7-(2-Benzylidenohydrazinyl)-8-hydroxyquinoline], the MIC in the data set on P. aeruginosa ATCC 27853 is > 64 µg/mL and > 243 µM; in the data set on S. aureus ATCC 29213, 52 µg/mL and 198 µM. Also, the midpoint of inhibition in data set [1], the IC50, lay at 0.77 ± 0.03 µM. In data set [2], the CC50 at 48 h came to 14.5 ± 3.5 µM.

In the case of `O=[N+]([O-])c1ccc(/C=N/Nc2ccc3cccnc3c2O)cc1` [II, 7-(4-Nitrobenzylidenohydrazinyl)-8-hydroxyquinoline], the MIC is > 64 µg/mL and > 208 µM in the data set on P. aeruginosa ATCC 27853; 14 ± 1.9 µg/mL (≈ 45.4 µM) in the data set with S. aureus ATCC 29213. In addition, half-maximal inhibition in data set [1] (IC50) required 1.2 ± 0.08 µM. In data set [2], this molecule returned a CC50 at 48 h of 21 ± 4 µM.

On to `O=[N+]([O-])c1cccc(/C=N/Nc2ccc3cccnc3c2O)c1` [III, 7-(3-Nitrobenzylidenohydrazinyl)-8-hydroxyquinoline], for which the MIC in the data set with P. aeruginosa ATCC 27853 is > 64 µg/mL and > 208 µM; in the data set with S. aureus ATCC 29213, 18 ± 4.8 µg/mL (≈ 58.4 µM). This molecule also had a concentration for half-maximal inhibition (IC50) in data set [1] of 1.4 ± 0.33 µM. This molecule also yielded a CC50 at 48 h in data set [2] of 7.1 ± 0.7 µM.

On to `COc1ccc(/C=N/Nc2ccc3cccnc3c2O)cc1` [IV, 7-(4-Methoxybenzylidenohydrazinyl)-8-hydroxyquinoline], for which the MIC in the data set with P. aeruginosa ATCC 27853 was > 64 µg/mL and > 218 µM; with S. aureus ATCC 29213, 64 µg/mL and 218 µM. Half-maximal inhibition in data set [1] (IC50) required 0.67 ± 0.05 µM. The same molecule returned a CC50 at 48 h in data set [2] of 9.1 ± 1.5 µM.

`Oc1c(N/N=C/c2ccc(Br)c(Br)c2)ccc2cccnc12` [V, 7-(3,4-Dibromobenzylidenohydrazinyl)-8-hydroxyquinoline]: the MIC in the data set with P. aeruginosa ATCC 27853 is > 64 µg/mL and > 152 µM; in the data set with S. aureus ATCC 29213, 36.3 ± 10.3 µg/mL (≈ 86.2 µM). Moreover, the IC50 in data set [1] was less than 0.5 µM. The CC50 at 48 h in data set [2] was 8.6 ± 0.1 µM.

For `Oc1c(N/N=C/c2ccc(F)cc2)ccc2cccnc12` [VI, 7-(4-Fluorobenzylidenohydrazinyl)-8-hydroxyquinoline], the MIC was > 64 µg/mL and > 228 µM in the data set with P. aeruginosa ATCC 27853; ≥ 64 µg/mL and ≥ 228 µM with S. aureus ATCC 29213. In addition, the IC50 in data set [1] was less than 0.5 µM. The midpoint of cytotoxicity in data set [2], the CC50 at 48 h, lay at 6.7 ± 0.2 µM.

(Values after publication PMC12428554, “Anti-HIV and Antimicrobial Activity of 7-Hydrazino-8-hydroxyquinoline-Based Aromatic Hydrazones” (International Journal of Molecular Sciences, 2025).)
